# Biological target: T1, GABA A receptor α5β3γ2 (Homo sapiens, UniProt P18507+P31644)
# T1 construct: expressed in transfected cells; host or cells: HEK293 (transiently transfected; membranes)
# Test: [3H]flumazenil competition binding, membranes of HEK293 cells expressing human GABA A α5β3γ2
# Settings: human α5β3γ2 in HEK293 (transiently transfected); 0.5 nM [3H]flumazenil; 1 hour at 4° C.; means of two determinations; read-out: Ki[nM]hα5
# Protocol: The affinity of compounds at GABA A receptor subtypes was measured by competition for [3H]flumazenil (85 Ci/mmol; Roche) binding to HEK293 cells expressing rat (stably transfected) or human (transiently transfected) receptors of composition α1β3γ2, α2β3γ2, α3β3γ2 and α5β3γ2.
# Cell pellets were suspended in Krebs-tris buffer (4.8 mM KCl, 1.2 mM CaCl2, 1.2 mM MgCl2, 120 mM NaCl, 15 mM Tris; pH 7.5; binding assay buffer), homogenized by polytron for ca. 20 sec on ice and centrifuged for 60 min at 4° C. (50000 g; Sorvall, rotor: SM24=20000 rpm). The cell pellets were resuspended in Krebs-tris buffer and homogenized by polytron for ca. 15 sec on ice. Protein was measured (Bradford method, Bio-Rad) and aliquots of 1 mL were prepared and stored at −80° C.
# Radioligand binding assays were carried out in a volume of […] (96-well plates) which contained […] of cell membranes, [3H]flumazenil at a concentration of 1 nM for α1, α2, α3 subunits and 0.5 nM for α5 subunits and the test compound in the range of […]. Nonspecific binding was defined by 10^−5 M diazepam and typically represented less than 5% of the total binding. Assays were incubated to equilibrium for 1 hour at 4° C. and harvested onto GF/C uni-filters (Packard) by filtration using a Packard harvester and washing with ice-cold wash buffer 50 mM Tris; pH 7.5). After drying, filter-retained radioactivity was detected by liquid scintillation counting. Ki values were calculated using Excel-Fit (Microsoft) and are the means of two determinations.
row,Molecule,Ki [nM]
1,"2-(5-Methyl-3-phenyl-isoxazol-4-yl)-imidazo[1,2-a]pyridine-6-carboxylic acid (3-morpholin-4-yl-propyl)-amide [Example 39]",190
2,"Cc1onc(-c2ccccc2)c1-c1cn2ccccc2n1 [Example 1, 2-(5-Methyl-3-phenyl-isoxazol-4-yl)-imidazo[1,2-a]pyridine]",167
3,"Cc1onc(-c2ccccc2)c1-c1cn2cccc(C)c2n1 [Example 2, 8-Methyl-2-(5-methyl-3-phenyl-isoxazol-4-yl)-imidazo[1,2-a]pyridine]",232
4,"Cc1onc(-c2ccccc2)c1-c1cn2cccc(Cl)c2n1 [Example 3, 8-Chloro-2-(5-methyl-3-phenyl-isoxazol-4-yl)-imidazo[1,2-a]pyridine]",126
5,"Cc1onc(-c2ccccc2)c1-c1cn2cccc(Br)c2n1 [Example 4, 8-Bromo-2-(5-methyl-3-phenyl-isoxazol-4-yl)-imidazo[1,2-a]pyridine]",146
6,"Cc1onc(-c2ccccc2)c1-c1cn2cccc(O)c2n1 [Example 5, 2-(5-Methyl-3-phenyl-isoxazol-4-yl)-imidazo[1,2-a]pyridin-8-ol]",20.2
7,"Cc1onc(-c2ccccc2)c1-c1cn2cccc(OCc3ccccc3)c2n1 [Example 6, 8-Benzyloxy-2-(5-methyl-3-phenyl-isoxazol-4-yl)-imidazo[1,2-a]pyridine]",23
8,"Cc1onc(-c2ccccc2)c1C(=O)COc1cccn2cc(-c3c(-c4ccccc4)noc3C)nc12 [Example 7, 1-(5-Methyl-3-phenyl-isoxazol-4-yl)-2-[2-(5-methyl-3-phenyl-isoxazol-4-yl)-imidazo[1,2-a]pyridin-8-yloxy]-ethanone]",126
9,"Cc1ccn2cc(-c3c(-c4ccccc4)noc3C)nc2c1 [Example 8, 7-Methyl-2-(5-methyl-3-phenyl-isoxazol-4-yl)-imidazo[1,2-a]pyridine]",81.7
10,"CCc1ccn2cc(-c3c(-c4ccccc4)noc3C)nc2c1 [Example 9, 7-Ethyl-2-(5-methyl-3-phenyl-isoxazol-4-yl)-imidazo[1,2-a]pyridine]",101
11,"COC(=O)c1ccn2cc(-c3c(-c4ccccc4)noc3C)nc2c1 [Example 10, 2-(5-Methyl-3-phenyl-isoxazol-4-yl)-imidazo[1,2-a]pyridine-7-carboxylic acid methyl ester]",150
12,"Cc1onc(-c2ccccc2)c1-c1cn2ccc(C(=O)NCC3CC3)cc2n1 [Example 11, 2-(5-Methyl-3-phenyl-isoxazol-4-yl)-imidazo[1,2-a]pyridine-7-carboxylic acid cyclopropylmethyl-amide]",178
13,"C#CCNC(=O)c1ccn2cc(-c3c(-c4ccccc4)noc3C)nc2c1 [Example 12, 2-(5-Methyl-3-phenyl-isoxazol-4-yl)-imidazo[1,2-a]pyridine-7-carboxylic acid prop-2-ynylamide]",72.3
14,"Cc1onc(-c2ccccc2)c1-c1cn2ccc(C(=O)NC3CC3)cc2n1 [Example 13, 2-(5-Methyl-3-phenyl-isoxazol-4-yl)-imidazo[1,2-a]pyridine-7-carboxylic acid cyclopropylamide]",87.4
15,"Cc1onc(-c2ccccc2)c1-c1cn2ccc(C(=O)NC3CCC3)cc2n1 [Example 14, 2-(5-Methyl-3-phenyl-isoxazol-4-yl)-imidazo[1,2-a]pyridine-7-carboxylic acid cyclobutylamide]",168
16,"Cc1onc(-c2ccccc2)c1-c1cn2ccc(C(=O)NC3CCCC3)cc2n1 [Example 15, 2-(5-Methyl-3-phenyl-isoxazol-4-yl)-imidazo[1,2-a]pyridine-7-carboxylic acid cyclopentylamide]",200
17,"Cc1onc(-c2ccccc2)c1-c1cn2ccc(C(=O)NCCO)cc2n1 [Example 16, 2-(5-Methyl-3-phenyl-isoxazol-4-yl)-imidazo[1,2-a]pyridine-7-carboxylic acid (2-hydroxy-ethyl)-amide]",114
18,"Cc1onc(-c2ccccc2)c1-c1cn2ccc(C(=O)NC3CCOCC3)cc2n1 [Example 17, 2-(5-Methyl-3-phenyl-isoxazol-4-yl)-imidazo[1,2-a]pyridine-7-carboxylic acid (tetrahydro-pyran-4-yl)-amide]",96
19,"Cc1onc(-c2ccccc2)c1-c1cn2ccc(C(=O)NCCN3CCOCC3)cc2n1 [Example 18, 2-(5-Methyl-3-phenyl-isoxazol-4-yl)-imidazo[1,2-a]pyridine-7-carboxylic acid (2-morpholin-4-yl-ethyl)-amide]",159

row,Molecule,Ki [nM]
1,"Cc1onc(-c2ccccc2)c1-c1cn2ccc(C(=O)NCCCN3CCOCC3)cc2n1 [Example 19, 2-(5-Methyl-3-phenyl-isoxazol-4-yl)-imidazo[1,2-a]pyridine-7-carboxylic acid (3-morpholin-4-yl-propyl)-amide]",124
2,"Cc1onc(-c2ccccc2)c1-c1cn2ccc(C(=O)NCc3cccnc3)cc2n1 [Example 21, 2-(5-Methyl-3-phenyl-isoxazol-4-yl)-imidazo[1,2-a]pyridine-7-carboxylic acid (pyridin-3-ylmethyl)-amide]",97
3,"Cc1onc(-c2ccccc2)c1-c1cn2ccc(C(=O)NCc3ccncc3)cc2n1 [Example 22, 2-(5-Methyl-3-phenyl-isoxazol-4-yl)-imidazo[1,2-a]pyridine-7-carboxylic acid (pyridin-4-ylmethyl)-amide]",199
4,"Cc1onc(-c2ccccc2)c1-c1cn2ccc(C(=O)NCc3ccco3)cc2n1 [Example 23, 2-(5-Methyl-3-phenyl-isoxazol-4-yl)-imidazo[1,2-a]pyridine-7-carboxylic acid (furan-2-ylmethyl)-amide]",183
5,"Cc1ccc2nc(-c3c(-c4ccccc4)noc3C)cn2c1 [Example 24, 6-Methyl-2-(5-methyl-3-phenyl-isoxazol-4-yl)-imidazo[1,2-a]pyridine]",33.1
6,"Cc1onc(-c2ccccc2)c1-c1cn2cc(F)ccc2n1 [Example 25, 6-Fluoro-2-(5-methyl-3-phenyl-isoxazol-4-yl)-imidazo[1,2-a]pyridine]",154
7,"Cc1onc(-c2ccccc2)c1-c1cn2cc(Cl)ccc2n1 [Example 26, 6-Chloro-2-(5-methyl-3-phenyl-isoxazol-4-yl)-imidazo[1,2-a]pyridine]",110
8,"Cc1onc(-c2ccccc2)c1-c1cn2cc(Br)ccc2n1 [Example 27, 6-Bromo-2-(5-methyl-3-phenyl-isoxazol-4-yl)-imidazo[1,2-a]pyridine]",121
9,"Cc1onc(-c2ccccc2)c1-c1cn2cc(C#N)ccc2n1 [Example 28, 2-(5-Methyl-3-phenyl-isoxazol-4-yl)-imidazo[1,2-a]pyridine-6-carbonitrile]",173
10,"COC(=O)c1ccc2nc(-c3c(-c4ccccc4)noc3C)cn2c1 [Example 29, 2-(5-Methyl-3-phenyl-isoxazol-4-yl)-imidazo[1,2-a]pyridine-6-carboxylic acid methyl ester]",117
11,"CCOC(=O)c1ccc2nc(-c3c(-c4ccccc4)noc3C)cn2c1 [Example 30, 2-(5-Methyl-3-phenyl-isoxazol-4-yl)-imidazo[1,2-a]pyridine-6-carboxylic acid ethyl ester]",154
12,"Cc1onc(-c2ccccc2)c1-c1cn2cc(C(=O)NCC3CC3)ccc2n1 [Example 31, 2-(5-Methyl-3-phenyl-isoxazol-4-yl)-imidazo[1,2-a]pyridine-6-carboxylic acid cyclopropylmethyl-amide]",23.9
13,"C#CCNC(=O)c1ccc2nc(-c3c(-c4ccccc4)noc3C)cn2c1 [Example 32, 2-(5-Methyl-3-phenyl-isoxazol-4-yl)-imidazo[1,2-a]pyridine-6-carboxylic acid prop-2-ynylamide]",44.5
14,"Cc1onc(-c2ccccc2)c1-c1cn2cc(C(=O)NC3CC3)ccc2n1 [Example 33, 2-(5-Methyl-3-phenyl-isoxazol-4-yl)-imidazo[1,2-a]pyridine-6-carboxylic acid cyclopropylamide]",23.6
15,"Cc1onc(-c2ccccc2)c1-c1cn2cc(C(=O)NC3CCC3)ccc2n1 [Example 34, 2-(5-Methyl-3-phenyl-isoxazol-4-yl)-imidazo[1,2-a]pyridine-6-carboxylic acid cyclobutylamide]",19.8
16,"Cc1onc(-c2ccccc2)c1-c1cn2cc(C(=O)NC3CCCC3)ccc2n1 [Example 35, 2-(5-Methyl-3-phenyl-isoxazol-4-yl)-imidazo[1,2-a]pyridine-6-carboxylic acid cyclopentylamide]",15.8
17,"Cc1onc(-c2ccccc2)c1-c1cn2cc(C(=O)NCCO)ccc2n1 [Example 36, 2-(5-Methyl-3-phenyl-isoxazol-4-yl)-imidazo[1,2-a]pyridine-6-carboxylic acid (2-hydroxy-ethyl)-amide]",59.8
18,"Cc1onc(-c2ccccc2)c1-c1cn2cc(C(=O)NC3CCOCC3)ccc2n1 [Example 37, 2-(5-Methyl-3-phenyl-isoxazol-4-yl)-imidazo[1,2-a]pyridine-6-carboxylic acid (tetrahydro-pyran-4-yl)-amide]",6.8

# Source: patent US7585874B2, “Aryl-isoxazol-4-yl-imidazo[1,2-a]pyridine derivatives” (Hoffmann-La Roche Inc., priority 2006, dated 2009)
